Measurements from ChEMBL document CHEMBL4706519, “Evaluation of N-phenyl-2-aminothiazoles for treatment of multi-drug resistant and intracellular Staphylococcus aureus infections” (Eur J Med Chem, 2020).
≈ marks a conversion by molar mass, not a printed value. Blank lines part the entries; values can stand above or below the compound they belong to.

Columns and labels:
Escherichia coli [1] = assay: Antibacterial activity against Escherichia coli JW55031 harboring toIC efflux mutant assessed as inhibition of bacterial growth measured after 18 to 20 hrs by broth microdilution method; type: functional; conditions: time 18-20 hrs
Staphylococcus aureus [2] = assay: Antibacterial activity against methicillin-resistant Staphylococcus aureus USA300 NRS384 assessed as inhibition of bacterial growth measured after 18 to 20 hrs by broth microdilution method; type: functional; conditions: time 18-20 hrs
Escherichia coli [3] = assay: Antibacterial activity against wild type Escherichia coli BW25113 assessed as inhibition of bacterial growth measured after 18 to 20 hrs by broth microdilution method; type: functional; conditions: time 18-20 hrs
[4] = system: Staphylococcus epidermidis; assay: Antibacterial activity against methicillin-resistant Staphylococcus epidermidis NRS101 assessed as inhibition of bacterial growth measured after 18 to 20 hrs by CLSI protocol based broth microdilution method; type: functional; conditions: time 18-20 hrs
Staphylococcus aureus [5] = assay: microbe, parasite or virus in culture; conditions: USA700 NRS386
Staphylococcus aureus [6] = assay: microbe, parasite or virus in culture; conditions: NRS107
Staphylococcus aureus [7] = assay: Antibacterial activity against vancomycin-resistant Staphylococcus aureus 10 assessed as inhibition of bacterial growth measured after 18 to 20 hrs by CLSI protocol based broth microdilution method; type: functional; conditions: time 18-20 hrs
Staphylococcus aureus [8] = assay: microbe, parasite or virus in culture; conditions: ATCC 6538
Streptococcus pneumoniae [9] = assay: Antibacterial activity against methicillin-resistant Streptococcus pneumoniae ATCC 700677 assessed as inhibition of bacterial growth measured after 18 to 20 hrs by CLSI protocol based broth microdilution method; type: functional; conditions: time 18-20 hrs
Listeria monocytogenes = assay: Antibacterial activity against Listeria monocytogenes ATCC 19111 assessed as inhibition of bacterial growth measured after 18 to 20 hrs by CLSI protocol based broth microdilution method; type: functional; conditions: time 18-20 hrs
Enterococcus faecium = assay: Antibacterial activity against vancomycin-resistant Enterococcus faecium ATCC 700221 assessed as inhibition of bacterial growth measured after 18 to 20 hrs by CLSI protocol based broth microdilution method; type: functional; conditions: time 18-20 hrs
Staphylococcus aureus [10] = assay: Bactericidal activity against methicillin-resistant Staphylococcus aureus USA400 NRS123 assessed as post-antibiotic effect at 5 times MIC incubated for 2 hrs followed by compound wash-out by viable plate count method; type: functional
Enterococcus faecalis = assay: microbe, parasite or virus in culture; conditions: ATCC 51299
Staphylococcus aureus [11] = assay: microbe, parasite or virus in culture; conditions: USA500 NRS385
Staphylococcus aureus [12] = assay: Antibacterial activity against vancomycin-resistant Staphylococcus aureus 12 assessed as inhibition of bacterial growth measured after 18 to 20 hrs by CLSI protocol based broth microdilution method; type: functional; conditions: time 18-20 hrs
Staphylococcus aureus [13] = assay: microbe, parasite or virus in culture; conditions: NRS119
Streptococcus pneumoniae [14] = assay: Antibacterial activity against cephalosporin-resistant Streptococcus pneumoniae ATCC 51916 assessed as inhibition of bacterial growth measured after 18 to 20 hrs by CLSI protocol based broth microdilution method; type: functional; conditions: time 18-20 hrs
Staphylococcus aureus [15] = assay: microbe, parasite or virus in culture; conditions: USA400 NRS123
physchem = conditions: phosphate-buffered saline, pH 7.4
Staphylococcus aureus [16] = assay: Ratio of MIC for methicillin-resistant Staphylococcus aureus USA400 NRS123 measured after 14th passage to MIC for methicillin-resistant Staphylococcus aureus USA400 NRS123 measured after 18 to 20 hrs by broth microdilution assay; type: functional

Compound: C/C(=N\NC(N)=O)c1ccc(Nc2nc(-c3ccc(Br)cc3)cs2)cc1
- MIC (Escherichia coli [1]): > 64 µg/mL
- MIC (Staphylococcus aureus [2]): > 64 µg/mL
- MIC (Escherichia coli [3]): > 64 µg/mL

Compound: CC(=O)c1ccc(Nc2nc(-c3ccc(Br)cc3)cs2)cc1
- MIC (Escherichia coli [1]): > 64 µg/mL
- MIC (Staphylococcus aureus [2]): > 64 µg/mL
- MIC (Escherichia coli [3]): > 64 µg/mL

Compound: C/C(=N\NC(N)=S)c1ccc(Nc2nc(-c3ccccc3)cs2)cc1
- MIC (Escherichia coli [1]): > 64 µg/mL
- MIC (Staphylococcus aureus [2]): > 64 µg/mL
- MIC (Escherichia coli [3]): > 64 µg/mL

Compound: CN[C@H](CC(C)C)C(=O)N[C@H]1C(=O)N[C@@H](CC(N)=O)C(=O)N[C@H]2C(=O)N[C@H]3C(=O)N[C@H](C(=O)N[C@H](C(=O)O)c4cc(O)cc(O)c4-c4cc3ccc4O)[C@H](O)c3ccc(c(Cl)c3)Oc3cc2cc(c3O[C@@H]2O[C@H](CO)[C@@H](O)[C@H](O)[C@H]2O[C@H]2C[C@](C)(N)[C@H](O)[C@H](C)O2)Oc2ccc(cc2Cl)[C@H]1O [VANCOMYCIN]
- MBC [4]: 2 µg/mL (≈ 1.38 µM)
- MBC (Staphylococcus aureus [5]): 1 µg/mL (≈ 0.69 µM)
- MBC (Staphylococcus aureus [6]): 2 µg/mL (≈ 1.38 µM)
- MBC (Staphylococcus aureus [7]): > 64 µg/mL
- MIC (Staphylococcus aureus [7]): 64 µg/mL (≈ 44.2 µM)
- MBC (Staphylococcus aureus [8]): 2 µg/mL (≈ 1.38 µM)
- MIC (Streptococcus pneumoniae [9]): 2 µg/mL (≈ 1.38 µM)
- MIC (Listeria monocytogenes): 1 µg/mL (≈ 0.69 µM)
- MBC (Enterococcus faecium): > 64 µg/mL
- MIC (Enterococcus faecium): > 64 µg/mL
- PAE (Staphylococcus aureus [10]): 2 h
- MBC (Enterococcus faecalis): 64 µg/mL (≈ 44.2 µM)
- MIC (Enterococcus faecalis): 32 µg/mL (≈ 22.1 µM)
- MBC (Staphylococcus aureus [11]): 1 µg/mL (≈ 0.69 µM)
- MBC (Staphylococcus aureus [12]): 64 µg/mL (≈ 44.2 µM)
- MIC (Staphylococcus aureus [12]): 64 µg/mL (≈ 44.2 µM)
- MBC (Staphylococcus aureus [13]): 2 µg/mL (≈ 1.38 µM)
- MIC (Streptococcus pneumoniae [14]): 1 µg/mL (≈ 0.69 µM)
- MBC (Staphylococcus aureus [15]): 1 µg/mL (≈ 0.69 µM)

Compound: C/C(=N\NC(=N)N)c1ccc(Nc2nc(-c3ccc(Br)cc3)cs2)cc1
- MIC (Escherichia coli [1]): 2 µg/mL (≈ 4.66 µM)
- MIC (Staphylococcus aureus [2]): 16 µg/mL (≈ 37.3 µM)
- MIC (Escherichia coli [3]): 4 µg/mL (≈ 9.32 µM)

Compound: C/C(=N\NC(N)=O)c1ccc(Nc2nc(-c3ccc(Cl)cc3)cs2)cc1
- MIC (Escherichia coli [1]): > 64 µg/mL
- MIC (Staphylococcus aureus [2]): > 64 µg/mL
- MIC (Escherichia coli [3]): > 64 µg/mL

Compound: COc1ccc(-c2csc(Nc3ccc(/C(C)=N/NC(N)=S)cc3)n2)cc1
- MIC (Escherichia coli [1]): > 64 µg/mL
- MIC (Staphylococcus aureus [2]): > 64 µg/mL
- MIC (Escherichia coli [3]): > 64 µg/mL

Compound: COc1ccc(-c2csc(Nc3ccc(/C(C)=N/NC(N)=O)cc3)n2)cc1
- MIC (Escherichia coli [1]): > 64 µg/mL
- MIC (Staphylococcus aureus [2]): > 64 µg/mL
- MIC (Escherichia coli [3]): > 64 µg/mL

Compound: COc1ccc(-c2csc(Nc3ccc(C(C)=O)cc3)n2)cc1
- MIC (Escherichia coli [1]): > 64 µg/mL
- MIC (Staphylococcus aureus [2]): > 64 µg/mL
- MIC (Escherichia coli [3]): > 64 µg/mL

Compound: CN[C@@H]1[C@@H](O)[C@@H](O[C@@H]2[C@@H](O)[C@H](O[C@H]3O[C@H]([C@@H](C)N)CC[C@H]3N)[C@@H](N)C[C@H]2N)OC[C@]1(C)O [GENTAMICIN C2]
- MIC (Escherichia coli [1]): 0.25 µg/mL (≈ 0.539 µM)
- MIC (Escherichia coli [3]): 0.25 µg/mL (≈ 0.539 µM)

- solubility kinetic at 2 h (physchem): 183 µM (≈ 151 µg/mL)
Compound: CO[C@H]1/C=C/O[C@@]2(C)Oc3c(C)c(O)c4c(O)c(c(/C=N/N5CCN(C)CC5)c(O)c4c3C2=O)NC(=O)/C(C)=C\C=C\[C@H](C)[C@H](O)[C@@H](C)[C@@H](O)[C@@H](C)[C@H](OC(C)=O)[C@@H]1C [RIFAMPIN]

Compound: O=C(O)c1cn(C2CC2)c2cc(N3CCNCC3)c(F)cc2c1=O [CIPROFLOXACIN]
- Ratio (Staphylococcus aureus [16]): 127

Compound: C/C(=N\NC(N)=O)c1ccc(Nc2nc(-c3ccccc3)cs2)cc1
- MIC (Escherichia coli [1]): > 64 µg/mL
- MIC (Staphylococcus aureus [2]): > 64 µg/mL
- MIC (Escherichia coli [3]): > 64 µg/mL

Compound: C/C(=N\NC(N)=S)c1ccc(Nc2nc(-c3ccc(Cl)cc3)cs2)cc1
- MIC (Escherichia coli [1]): 64 µg/mL (≈ 159 µM)
- MIC (Staphylococcus aureus [2]): 32 µg/mL (≈ 79.6 µM)
- MIC (Escherichia coli [3]): > 64 µg/mL

Compound: CC(=O)c1ccc(Nc2nc(-c3ccc(C)cc3)cs2)cc1
- MIC (Escherichia coli [1]): 64 µg/mL (≈ 208 µM)
- MIC (Staphylococcus aureus [2]): > 64 µg/mL
- MIC (Escherichia coli [3]): > 64 µg/mL

Compound: COc1ccc(-c2csc(Nc3ccc(/C(C)=N/NC(=N)N)cc3)n2)cc1
- MIC (Escherichia coli [1]): 2 µg/mL (≈ 5.26 µM)
- MIC (Staphylococcus aureus [2]): 32 µg/mL (≈ 84.1 µM)
- MIC (Escherichia coli [3]): 4 µg/mL (≈ 10.5 µM)

Compound: C/C(=N\NC(N)=S)c1ccc(Nc2nc(-c3ccc(Br)cc3)cs2)cc1
- MIC (Escherichia coli [1]): > 64 µg/mL
- MIC (Staphylococcus aureus [2]): > 64 µg/mL
- MIC (Escherichia coli [3]): > 64 µg/mL

Compound: CC(=O)NC[C@H]1CN(c2ccc(N3CCOCC3)c(F)c2)C(=O)O1 [LINEZOLID]
- MBC [4]: 16 µg/mL (≈ 47.4 µM)
- MIC [4]: 1 µg/mL (≈ 2.96 µM)
- MBC (Staphylococcus aureus [5]): 64 µg/mL (≈ 190 µM)
- MBC (Staphylococcus aureus [6]): 64 µg/mL (≈ 190 µM)
- MIC (Staphylococcus aureus [6]): 1 µg/mL (≈ 2.96 µM)
- MBC (Staphylococcus aureus [7]): > 64 µg/mL
- MIC (Staphylococcus aureus [7]): 1 µg/mL (≈ 2.96 µM)
- MBC (Staphylococcus aureus [8]): 16 µg/mL (≈ 47.4 µM)
- MIC (Staphylococcus aureus [8]): 1 µg/mL (≈ 2.96 µM)
- MBC (Streptococcus pneumoniae [9]): 16 µg/mL (≈ 47.4 µM)
- MBC (Listeria monocytogenes): 16 µg/mL (≈ 47.4 µM)
- MIC (Listeria monocytogenes): ≤ 0.5 µg/mL
- MBC (Enterococcus faecium): 16 µg/mL (≈ 47.4 µM)
- MIC (Enterococcus faecium): 1 µg/mL (≈ 2.96 µM)
- MBC (Enterococcus faecalis): 16 µg/mL (≈ 47.4 µM)
- MBC (Staphylococcus aureus [11]): 32 µg/mL (≈ 94.9 µM)
- MIC (Staphylococcus aureus [11]): 1 µg/mL (≈ 2.96 µM)
- MBC (Staphylococcus aureus [12]): 64 µg/mL (≈ 190 µM)
- MIC (Staphylococcus aureus [12]): 1 µg/mL (≈ 2.96 µM)
- MBC (Staphylococcus aureus [13]): > 64 µg/mL
- MIC (Staphylococcus aureus [13]): 64 µg/mL (≈ 190 µM)
- MBC (Streptococcus pneumoniae [14]): 32 µg/mL (≈ 94.9 µM)
- MBC (Staphylococcus aureus [15]): 32 µg/mL (≈ 94.9 µM)
- MIC (Staphylococcus aureus [15]): 1 µg/mL (≈ 2.96 µM)

Compound: C/C(=N\NC(N)=O)c1ccc(Nc2nc(-c3ccc(C)cc3)cs2)cc1
- MIC (Escherichia coli [1]): 32 µg/mL (≈ 87.6 µM)
- MIC (Staphylococcus aureus [2]): 32 µg/mL (≈ 87.6 µM)
- MIC (Escherichia coli [3]): > 64 µg/mL

Compound: CC(=O)c1ccc(Nc2nc(-c3ccccc3)cs2)cc1
- MIC (Escherichia coli [1]): > 64 µg/mL
- MIC (Staphylococcus aureus [2]): > 64 µg/mL
- MIC (Escherichia coli [3]): > 64 µg/mL

Compound: CC(=O)c1ccc(Nc2nc(-c3ccc(Cl)cc3)cs2)cc1
- MIC (Escherichia coli [1]): > 64 µg/mL
- MIC (Staphylococcus aureus [2]): > 64 µg/mL
- MIC (Escherichia coli [3]): > 64 µg/mL

Compound: C/C(=N\NC(N)=S)c1ccc(Nc2nc(-c3ccc(C)cc3)cs2)cc1
- MIC (Escherichia coli [1]): > 64 µg/mL
- MIC (Staphylococcus aureus [2]): > 64 µg/mL
- MIC (Escherichia coli [3]): > 64 µg/mL
